From US20100284914A1 (priority 2005, published 2010) come the findings set out here.

Series [1] has as its system Candida albicans 615. The class given is cell-based.
Series [2] deals with Candida albicans CBS 562. It is filed as cell-based. The note with it: for MIC: read-out: MIC (column A).
The subject of series [3] is Candida albicans 607. The class given is cell-based.
The test system of series [4] is Candida glabrata 4475 (resistant to azoles). The class given is cell-based. The note with it: Nakaseomyces glabratus, 24 h, read-out: MIC.
Series [5] has as its system Candida glabrata 4681. It is filed as cell-based. The note with it: footnote c.
Series [6] deals with Candida glabrata 4787. The class given is cell-based.
Series [7] deals with Rhizopus oryzae. Briefly: microbe, parasite or virus in culture. It is filed as cell-based. The note with it: Rhizopus arrhizus.
Series [8] is described as follows: in vivo. The conditions noted are these: male, ICR, mouse, iv.
Series [9] concerns Sprague-Dawley rats. The series can be described thus: PET imaging, bio-distribution. The class given is in vivo. The note with it: normal female Sprague-Dawley rats, 50 μCi via tail vein, imaged after 30 minutes. How it is done:
The exemplary [^18F] labeled amine fluorocyanoborane according to the present embodiments, Compound [^18F]K-I4, was injected into normal rats, and was monitored by a PET/CT Philips camera.
Four normal, female Sprague-Dawley rats (250-300 grams each) were injected via the tail vein with 50 μCi of Compound [^18F]K-I4 solution in saline (4.5 mCi/ml). Fifteen minutes after injection, the rats were anesthetized with 45 mg Ketamine and 24 mg Acepromazin, and after 30 minutes each rat was imaged for 15 minutes.

Series [10] can be described thus: Stability of the radiolabeled product by TLC. It is filed as physicochemical. The note with it: saline solution, after 10 hours, silica gel 60 F254. How it is done:
The final product was tested on TLC (silica gel 60 F254) after 10 hours and found stable.

For series [11] the following is noted: long chain lengths.
The mark [12] stands for this setting: Candida albicans 615, MIC-0, 24 h, 35° C., read-out: MIC.
Setting [13] is: CBS562, Candida albicans CBS 562, MIC-0, 24 h, 35° C.
[14] abbreviates: Candida albicans 607, MIC-0, 24 h, 35° C., read-out: MIC.
Where [15] appears, read: Candida albicans, 615, 24 h, read-out: MIC.
[16] abbreviates: Candida albicans, 607, 24 h, read-out: MIC.
The mark [17] stands for this setting: Nakaseomyces glabratus, Candida glabrata 4787, read-out: MIC.
[18] abbreviates: Candida glabrata 4475 (resistant to azoles), footnote c.

SMILES strings stand for the structures. In brackets after ≈: the same amount, converted by molar mass. Like-named read-outs stand apart in the source and are kept apart here. Where only a bound is given, the exact number is not on record here.

Broadly, the melting point is the temperature, or range, at which the solid turns liquid. Consider `COC(=O)[B-](F)(F)[N+](C)(C)C`, for which the melting point is 66 °C.
For the molecule `CCCCCCCCCCC[N+](C)(C)[BH-](F)C#N` (stereo not drawn) [K-I4, dimethyl-undecyl-amine cyanofluoroborane], the MIC in [1] (setting [12]), in series [2] (setting [13]) and in series [3] (setting [14]) was 64 µM (≈ 16.4 µg/mL) each time.
With `C[N+](C)(C)[BH-](F)C#N` (stereo not drawn), the melting point was found to be 53 °C.
Regarding `C[N+](C)([BH2-]C#N)CCCCCCCCCC[N+](C)(C)[BH2-]C#N` [K-J, N,N,N′,N′-tetramethyldecane-1,10-diamine bis-cyanoborane], the MIC in [1] (setting [15]) amounted to 817 µM (≈ 250 µg/mL); in [2] (Candida albicans, CBS562, 24 h), 408 µM (≈ 125 µg/mL); in [4], 0.065 µg/mL (≈ 0.212 µM); in series [3] (setting [16]), 408 µM (≈ 125 µg/mL).
On to `CCCCCCCCCCC[N+](C)(C)[BH-](Br)C#N` (stereo not drawn) [K-I1, dimethyl-undecyl-amine cyanobromoborane], for which the MIC in series [1] (setting [12]) is 49 µM (≈ 15.5 µg/mL); in series [5], 7.8^c μg per liter; in [6] (setting [17]), 15.6 µM (≈ 4.95 µg/mL); in [2] (setting [13]), 49 µM (≈ 15.5 µg/mL); in [7], 63 µg/mL (≈ 199 µM); in series [4] (setting [18]) it was 0.0078 µg/mL (≈ 0.0246 µM). For the same molecule, the MIC in series [3] (setting [14]) was determined as 49 µM (≈ 15.5 µg/mL).
Consider `C[C@@H]1[C@H](O)[C@@H](C)/C=C/C=C/C=C/C=C/C=C/C=C/C=C/[C@H](O[C@@H]2O[C@H](C)[C@@H](O)[C@H](N)[C@@H]2O)C[C@@H]2O[C@](O)(C[C@@H](O)C[C@@H](O)[C@H](O)CC[C@@H](O)C[C@@H](O)CC(=O)O[C@H]1C)C[C@H](O)[C@H]2C(=O)O` [CAF1, Amphotericin B, reference compound], for which the “MIC” value in series [1] (Candida albicans 615, MIC-0, 24 h, 35° C.) came to 0.27 µM (≈ 0.25 µg/mL); in series [3] (Candida albicans 607, MIC-0, 24 h, 35° C.) it was 0.27 µM (≈ 0.25 µg/mL). Also, the “MIC (column A)” value in series [2] (Candida albicans CBS 562, MIC-0, 24 h, 35° C.) was found to be 0.54 µM (≈ 0.499 µg/mL).
As for `C[N+](C)(CCCCCCCCCC[N+](C)(C)[BH-](Br)C#N)[BH-](Br)C#N` (stereo not drawn) [K-J1, N,N,N′,N′-tetramethyldecane-1,10-diamine bis-cyanobromoborane], the MIC was 140 µM (≈ 64.9 µg/mL) in [1] (setting [12]); 65^c μg per liter in series [5]; 65 µM (≈ 30.2 µg/mL) in series [6] (setting [17]); 140 µM (≈ 64.9 µg/mL) in series [2] (setting [13]); 0.065 µg/mL (≈ 0.14 µM) in [4] (setting [18]); 140 µM (≈ 64.9 µg/mL) in series [3] (setting [14]).
Regarding `C[N+](C)(C)[B-](Br)(Br)C#N` [K-E, trimethyl-amine cyanodibromoborane], the MIC in series [1] (setting [12]) is above 1970 µM; in series [2] (setting [13]) it was 1970 µM (≈ 504 µg/mL); in [4] (setting [18]), above 0.5 µg/mL; in series [3] (setting [14]), above 1970 µM.
In turn, `C[N+](C)(C)[B-](F)(F)C#N` gave a melting point of 48 °C.
Consider `CCCCCCCCCCC[N+](C)(C)[B-](F)(Br)C#N` (stereo not drawn) [K-I3, dimethyl-undecyl-amine cyanofluorobromoborane], for which the results for the MIC in series [2] (setting [13]) and in series [7] were 7.8 µM (≈ 2.61 µg/mL) and 63 µg/mL (≈ 188 µM), respectively.
As for `C[N+](C)(CCCCCCCCCC[N+](C)(C)[B-](Br)(Br)C#N)[B-](Br)(Br)C#N` [K-J2, N,N,N′,N′-tetramethyldecane-1,10-diamine bis-cyanodibromoborane], the MIC was 104 µM (≈ 64.7 µg/mL) in series [1] (setting [15]); 65^c μg per liter in series [5]; 65 µM (≈ 40.4 µg/mL) in series [6] (Nakaseomyces glabratus, 4787, read-out: MIC); 104 µM (≈ 64.7 µg/mL) in series [2] (Candida albicans, CBS562, 24 h); 0.065 µg/mL (≈ 0.105 µM) in [4]; 104 µM (≈ 64.7 µg/mL) in [3] (setting [16]).
`CCCCCCCCCCC[N+](C)(C)[B-](Br)(Br)C#N` [K-I2, dimethyl-undecyl-amine cyanodibromoborane] showed an MTD in [8] of 73.1 µmol/kg. Further, the MIC was 39 µM (≈ 15.4 µg/mL) in [1] (setting [12]); 32^c μg per liter in series [5]; 32 µM (≈ 12.7 µg/mL) in [6] (setting [17]); 39 µM (≈ 15.4 µg/mL) in series [2] (setting [13]); 39 µM (≈ 15.4 µg/mL) in series [3] (setting [14]).
Regarding `CCCCCCCCCCC[N+](C)(C)[BH-]([18F])C#N` (stereo not drawn) [[^18F]K-I4, [^18F]dimethyl-undecyl-amine cyanofluoroborane], in [9], the “bio-distribution by PET/CT” value was “uptake in the rat's bones”. Besides, in series [10], the “stability on TLC” value is given as “stable”.
On to `CCCCCCC(C)(O)C[N+](C)(C)[BH2-]C#N` (stereo not drawn) [K-O, 1-dimethylamino-2-methyl-octan-2-ol cyanoborane], for which the MIC in series [1] (setting [12]) is 1100 µM (≈ 249 µg/mL); in series [2] (setting [13]), 2210 µM (≈ 500 µg/mL); in series [4] (setting [18]) it was above 0.25 µg/mL; in [3] (setting [14]), 1100 µM (≈ 249 µg/mL).
For the molecule `C[N+](C)([BH2-]C(=O)O)CCCCCCCCCC[N+](C)(C)[BH2-]C(=O)O` [K-J3, N,N,N′,N′-tetramethyldecane-1,10-diamine bis-carboxyborane], the MIC in series [1] (setting [12]) was 907 µM (≈ 312 µg/mL); in [5], 65^c μg per liter; in [6] (setting [17]) it was 65 µM (≈ 22.4 µg/mL); in [2] (setting [13]), 188 µM (≈ 64.7 µg/mL); in [4] (setting [18]), 0.0312 µg/mL (≈ 0.0907 µM); in series [3] (setting [14]), 188 µM (≈ 64.7 µg/mL).
With `CCCCCCCCCCCCCCCCC[N+](C)(C)[BH2-]C#N` [K-S, heptadecyl-dimethyl-amine cyanoborane], in series [11], the solubility entry is on record as “solubility problems”.
